Experiment [1] relates to Escherichia coli ATCC25922. In words: In vitro Minimum Inhibitory Concentration (MIC) testing. It counts as cell-based. To be noted: Escherichia coli ATCC25922; pH of the assay 7.2; read-out: Minimum Inhibition Concentration MIC. As for the experimental part:
(§1) The in vitro Minimum Inhibitory Concentration (MIC) Assay is a technique for determining the lowest concentration of a particular compound needed to prevent growth of microorganism. Different microorganisms were used to evaluate bacterial inhibition benefits for sulfate surfactants (Table 1) [table] Microorganisms are cultured and maintained in different culture medium. Each respective microorganism stock solution is diluted to 10^5 to 10^6 CFU/mL in a respective growth medium. 180 μl broth with the respective target microorganism is allocated into 96 well plates. Sodium oleyl sulfate prepared from two different synthesis batches (Ex. 1A and Ex. 1B), sodium octyl sulfate, sodium decyl sulfate, sodium lauryl sulfate were mixed respectively with in Deionized (DI) water. Octadecyl sulfate sodium was mixed in Dimethyl sulfoxide (DMSO). Two folds serial dilution are applied to each respective active by mixing 100 μl active stock solution (from 1 wt. %) plus 100 μl sterilized DI water or DMSO in 96 well plates (Nunc™ MicroWell™ 96-Well, CAT. No. 167008). For each assay, 0.001-1 wt. % treatment solutions are prepared for each individual active. Micropipettes are used to transfer 20 μl of actives at different concentration into each well with 180 μl broth with the respective target microorganisms. The 96 well plates with test microorganisms and test actives are incubated at 37° C. • a) E. coli are incubated for overnight 16 hours to 24 hour. • b) Corynebacterium minutissimum is incubated for two days. • c) Cutibacterium acnes is incubated for two days under anaerobic conditions. After incubation, microorganism growth is determined in presence of test actives by visual inspection or spectrophotometer by OD600 (absorbance at 600 nm using Tecan M200 Infinite Pro Microplate Reader) reading in comparison with positive control (broth with individual microorganism) and negative control (Broth only). MIC values are presented as parts per million (ppm) for different actives.

Experiment [2] deals with Staphylococcus aureus ATCC6538. Described as above. It counts as cell-based. The conditions noted are these: for MIC: read-out: Minimum Inhibition Concentration MIC. As for the experimental part: as §1
Experiment [3] deals with Corynebacterium minutissimum ATCC 23348. The description is as above. It counts as cell-based. To be noted: Corynebacterium minutissimum ATCC 23348; for MIC: ATCC23348, read-out: Minimum Inhibition Concentration MIC. The procedure:
as §1, with “plates. For instance, Corynebacterium minutissimum ATCC 23348 is cultured on tryptic soy agar (TSA) (Oxoid CM0131) over 24 hours. The single colonies are then transferred into 20 mL Tryptone Soy Broth (Oxoid CM0129B—TSB) and cultured overnight at 200 rpm/min, 37° C. Bacterial cell in broth will be diluted to 10^5 to 10^6 CFU/mL in TSB. 180 μL of this bacterium-MHB mix is added to a 96 well flat-bottomed plate (Nunc™ MicroWell™ 96-Well, CAT. No. 167008).” for “plates.”

In a further experiment the test system is Cutibacterium acne SK137. The experiment is described as above. It counts as cell-based, Cutibacterium acnes. To be noted: for MIC: Cutibacterium, SK137, Cutibacterium acne SK137, anaerobic, read-out: Minimum Inhibition Concentration MIC. The procedure:
as §1

Experiment [4] relates to Cutibacterium acne 2044 NIA (skin isolate). The description is as above. It counts as cell-based, Cutibacterium acnes. The conditions noted are these: for MIC: read-out: Minimum Inhibition Concentration MIC. The procedure: The in vitro Minimum Inhibitory Concentration (MIC) Assay is a technique for determining the lowest concentration of a particular compound needed to prevent growth of microorganism. Different microorganisms were used to evaluate bacterial inhibition benefits for sulfate surfactants (Table 1)
Microorganisms are cultured and maintained in different culture medium. Each respective microorganism stock solution is diluted to 10^5 to 10^6 CFU/mL in a respective growth medium. 180 μl broth with the respective target microorganism is allocated into 96 well plates.
Sodium oleyl sulfate prepared from two different synthesis batches (Ex. 1A and Ex. 1B), sodium octyl sulfate, sodium decyl sulfate, sodium lauryl sulfate were mixed respectively with in Deionized (DI) water. Octadecyl sulfate sodium was mixed in Dimethyl sulfoxide (DMSO).
Two folds serial dilution are applied to each respective active by mixing 100 μl active stock solution (from 1 wt. %) plus 100 μl sterilized DI water or DMSO in 96 well plates (Nunc™ MicroWell™ 96-Well, CAT. No. 167008). For each assay, 0.001-1 wt. % treatment solutions are prepared for each individual active.
Micropipettes are used to transfer 20 μl of actives at different concentration into each well with 180 μl broth with the respective target microorganisms.
The 96 well plates with test microorganisms and test actives are incubated at 37° C. • a) E. coli are incubated for overnight 16 hours to 24 hour. • b) Corynebacterium minutissimum is incubated for two days. • c) Cutibacterium acnes is incubated for two days under anaerobic conditions.
After incubation, microorganism growth is determined in presence of test actives by visual inspection or spectrophotometer by OD600 (absorbance at 600 nm using Tecan M200 Infinite Pro Microplate Reader) reading in comparison with positive control (broth with individual microorganism) and negative control (Broth only). MIC values are presented as parts per million (ppm) for different actives.
C. acne SK137 and C. acne 2044NIA (P&G skin isolate) are from Type IA-2 Clade by whole genome sequencing, which is reported to be associated with skin acne conditions.

Another experiment relates to E. coli ATCC25922. The experiment in a line: Kill Rate Test in liquid (suspension time-kill testing). It counts as cell-based, Escherichia coli. An excerpt:
The suspension time-kill test is a method to directly inoculate a liquid test substance with a high concentration of test microorganisms and then determine the percentage of killed over time, normally represented as log CFU reduction. The objective is to measure the biocidal potential of a liquid antimicrobial active or formulation.
E. coli ATCC25922 is streaked on Tryptic Soy Agar (TSA) Plates and cultured overnight. Pick up one colony of E. coli ATCC25922 and subculture bacterial cell in Tryptic Soy Broth (TSB) @ 200 rpm/min, 37° C. for 12-16 hours. After culturing, 1 mL bacterial cells in broth are pipetted into 2 mL tubes. Samples are centrifuged for 2 mins at 13000 rpm/min. Cell supernatant are discarded, and bacterial cells are resuspended in 1 mL Saline @ 10^8 to 10^9 CFU/mL. 1 mL liquid antimicrobial active to be tested under different concentrations is prepared: 20 mM acetate buffers are used to maintain the test solutions at a pH between 4.0 and 5.7. 10 mM phosphate buffer is used to maintain the test solution at a pH around 7.2. 20 mM Tris-HCl buffers are used to maintain the test solutions at a pH between 8.0 and 9.0. 1 mL saline (NaCl 0.9 wt. %) is used to as negative control in the study. 50 μl of 10^8 to 10^9 CFU/mL bacterial cells are added into each treatment and saline control. Samples were thoroughly mixed by vertexing 5 seconds. After incubating 30 minutes, 50 μl liquid from each treatment sample and saline control are pipetted out into for Total Viable Count Vial (NEOGEN). All measurements are done in duplicates. The Detection Time (DT) for Total Viable Count Vial is measured by Soleris® Next Generation (NEOGEN) system. DT values are averaged for each treatment and control for further calculation. DT time for each sample is converted to Log (viable cell number) by using algorithm generated for E. coli ATCC25922:
Biocidal potential of different actives at different concentrations and at different pHs in a liquid solution is measured by: […]

We go through 6 molecules from US20250009627A1, “THERAPEUTIC AND NON-THERAPEUTIC USES OF A PERSONAL CLEANSING COMPOSITION AND METHODS OF TREATMENT” (The Procter & Gamble Company, priority 2023, published 2025).

The structures appear in SMILES notation. Some results are limits rather than exact numbers.

For the molecule `CCCCCCCCCCOS(=O)(=O)[O-].[Na+]` [sodium decyl sulfate], the MIC in experiment [1] was over 1000 µg/mL; in experiment [2] (Staphylococcus aureus ATCC6538), over 1000 µg/mL; in experiment [3] it was over 500 µg/mL; with Cutibacterium acne SK137, over 500 µg/mL; in experiment [4], over 500 µg/mL. For the same molecule, the “inhibition of S. aureus (in words)” value in experiment [2] is recorded as “No inhibition”.
With `CCCCCCCCCCCCOS(=O)(=O)[O-].[Na+]` [sodium lauryl sulfate], the MIC is over 1000 µg/mL in experiment [1]; 125 µg/mL in experiment [2] (Staphylococcus aureus ATCC6538); 125 µg/mL in experiment [3]; 31.2 µg/mL in the experiment on Cutibacterium acne SK137; 62.5 µg/mL in experiment [4]. Also, the “inhibition of S. aureus (in words)” value in experiment [2] is given as “less potent than sodium oleyl sulfate”.
Regarding `CCCCCCCCOS(=O)(=O)[O-].[Na+]` [sodium octyl sulfate], the MIC in experiment [1] is over 1000 µg/mL; in experiment [2] (Staphylococcus aureus ATCC6538) it was over 1000 µg/mL; in experiment [3], over 500 µg/mL; with Cutibacterium acne SK137, over 500 µg/mL; in experiment [4] it was over 500 µg/mL. The “inhibition of S. aureus (in words)” value in experiment [2] is recorded as “No inhibition”.
Consider `CCCCCCCC/C=C\CCCCCCCCOS(=O)(=O)[O-].[Na+]` [Ex. 1B, sodium oleyl sulfate], for which the “Minimum Inhibition Concentration MIC” value was determined as 3.9 ppm in experiment [2] (Staphylococcus aureus ATCC6538); 3.9 ppm in experiment [3]; 7.8 ppm with Cutibacterium acne SK137 (Cutibacterium acne SK137, anaerobic, sulfate); 7.8 ppm in experiment [4]. For the same molecule, the “bactericidal activity against E. coli ATCC25922 (log CFU reduction)” value was 4.3 with E. coli ATCC25922 (12.5 ppm, test pH 4, 30 minutes); 0 with E. coli ATCC25922 (12.5 ppm, test pH 5.1, 30 minutes); 6.6 in the experiment with E. coli ATCC25922 (50 ppm, test pH 4, 30 minutes); under 0.3 with E. coli ATCC25922 (50 ppm, test pH 5.1, 30 minutes); 6.6 with E. coli ATCC25922 (200 ppm, test pH 4, 30 minutes); under 0.3 with E. coli ATCC25922 (200 ppm, test pH 5.1, 30 minutes).
`CCCCCCCCCCCCCCCCCCOS(=O)(=O)[O-].[Na+]` [octadecyl sulfate sodium salt]: the MIC was over 1000 µg/mL in experiment [1]; over 500 µg/mL in experiment [2] (Staphylococcus aureus ATCC6538); over 500 µg/mL in experiment [3]; over 500 µg/mL with Cutibacterium acne SK137; over 500 µg/mL in experiment [4]. In experiment [2], the “inhibition of S. aureus (in words)” value is “ineffective”. Also, the “bacterial inhibition of Cutibacterium acne (in words)” value in the experiment with Cutibacterium acne SK137 (two strains (SK137, 2044 NIA)) is “no effect”.
As to `CCCCCCCC/C=C\CCCCCCCCOS(=O)(=O)[O-].[Na+]` [Ex. 1A, sodium oleyl sulfate], the MIC in experiment [1] was over 1000 µg/mL; in experiment [2] (Staphylococcus aureus ATCC6538), 3.9 µg/mL; in experiment [3] it was 3.9 µg/mL; in the experiment with Cutibacterium acne SK137, 3.9 µg/mL; in experiment [4], 7.8 µg/mL.
